# Laboratory results taken from ChEMBL document CHEMBL1201862, “PubChem BioAssay data set” (2004).
#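 Interpolation was linear, between the two tested concentrations surrounding the appropriate level; five concentrations were tested over 48 hours in 96-well plates. GI50 marks 50% less growth.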 Activity calls are given as the source filed them. Rule as the data show it: active = GI50 up to about 1.1 µM and inactive = higher. Where a SMILES comes first, the peptide text is derived from it. [ ]: non-standard residue; d: D form. 2Nal = N[CH](Cc1ccc2ccccc2c1)C(=O)O
# Legend:
# Assay in all cases: NCI anticancer screen, dose series, 48 h
# [1] = test system: DMS-273
# [2] = test system: XF498
# [3] = test system: DMS-114
# [4] = test system: M19-MEL
# [5] = test system: HOP-18
# [6] = test system: SNB-78
# [7] = test system: DLD-1
# [8] = test system: LXFL 529
# [9] = test system: RXF 631
SMILES,GI50 [1],GI50 [2],GI50 [3],GI50 [4],GI50 [5],GI50 [6],GI50 [7],GI50 [8],GI50 [9]
CC(NC(=O)C(N)Cc1ccccc1)C(=O)NC(Cc1ccc(O)cc1)C(=O)NC(Cc1c[nH]c2ccccc12)C(=O)NC(CCCCN)C(=O)NC(C(=O)NC(C)C(=O)NC(Cc1ccc2ccccc2c1)C(N)=O)C(C)C (stereo not given) (H-FAYWKVA[2Nal]-NH2; configuration not given here),24.6 µM (inactive),21.4 µM (inactive),31.7 µM (inactive),27 µM (inactive),23.9 µM (inactive),44.3 µM (inactive),31.8 µM (inactive),,
O=C(CSc1nc(-c2ccccc2)c(-c2ccccc2)[nH]1)NNC(=S)Nc1ccccc1,92.7 µM (inactive),61.9 µM (inactive),57 µM (inactive),91.6 µM (inactive),,> 100 µM (inactive),96.4 µM (inactive),> 100 µM (inactive),
COC(=O)C(Cc1cc(OC)c(OC)c(OC)c1)c1ccc(OC)cc1 (stereo not given),> 100 µM (inactive),,62.4 µM (inactive),> 100 µM (inactive),> 100 µM (inactive),> 100 µM (inactive),> 100 µM (inactive),54.7 µM (inactive),> 100 µM (inactive)
Cn1cc(NC(=O)c2cc(NC(=O)Nc3cc(C(=O)Nc4cc(C(=O)NCCC(=N)N)n(C)c4)n(C)c3)cn2C)cc1C(=O)NCCC(=N)N,13.6 µM (inactive),21 µM (inactive),49.3 µM (inactive),20.4 µM (inactive),71.4 µM (inactive),38.5 µM (inactive),> 100 µM (inactive),56.5 µM (inactive),23.1 µM (inactive)
CCOC(=O)C(=O)CC1=Nc2ccccc2SC(c2cccc(C)c2)C1 (stereo not given),19.6 µM (inactive),,14.9 µM (inactive),18.8 µM (inactive),,16 µM (inactive),17.8 µM (inactive),18.1 µM (inactive),16 µM (inactive)
COC(=O)C1=CCC2c3[nH]c4ccccc4c3CCN2C1 (stereo not given),> 354 µM (inactive),,> 354 µM (inactive),> 354 µM (inactive),,,> 354 µM (inactive),> 354 µM (inactive),
CCOC(=O)C(Cc1ccccc1)NC(=O)c1ccc(/N=N/N(C)C)cc1 (stereo not given),> 100 µM (inactive),,> 100 µM (inactive),> 100 µM (inactive),,,> 100 µM (inactive),> 100 µM (inactive),
C=C1CC(C/C=C(\C)CC2CC(=C)C(=O)O2)OC1=O (stereo not given),> 100 µM (inactive),> 100 µM (inactive),> 100 µM (inactive),> 100 µM (inactive),> 100 µM (inactive),> 100 µM (inactive),> 100 µM (inactive),> 100 µM (inactive),> 100 µM (inactive)
Nc1nc2c(N)cc(C(F)(F)F)cc2nc1-c1ccccc1,> 100 µM (inactive),50.2 µM (inactive),86.5 µM (inactive),> 100 µM (inactive),> 100 µM (inactive),> 100 µM (inactive),> 100 µM (inactive),64.9 µM (inactive),
COc1ccc2nccc(NCCCN3CCN(CCCNc4ccnc5ccc(OC)cc45)CC3)c2c1,0.418 µM (active),0.201 µM (active),0.128 µM (active),0.652 µM (active),,0.873 µM (active),0.843 µM (active),0.179 µM (active),
CCc1cccc(C(C)C)c1NC(=O)C(=O)C1C(=O)NC(=O)NC1=O,,> 100 µM (inactive),> 100 µM (inactive),> 100 µM (inactive),> 100 µM (inactive),,> 100 µM (inactive),> 100 µM (inactive),
CN1c2ccccc2N(C(=O)c2ccccc2)C(CC(=O)O)c2cccn21 (stereo not given),> 100 µM (inactive),> 100 µM (inactive),> 100 µM (inactive),> 100 µM (inactive),> 100 µM (inactive),,,> 100 µM (inactive),> 100 µM (inactive)
c1ccc2c(c1)CCC/C2=N\OCC1CO1 (stereo not given),> 100 µM (inactive),37.6 µM (inactive),,> 100 µM (inactive),66.2 µM (inactive),> 100 µM (inactive),73.3 µM (inactive),64.3 µM (inactive),> 100 µM (inactive)
O=C(O)c1ccc([C@@H]2C(=O)N(O)[C@@H]3C=CC[C@@H]32)cc1,> 100 µM (inactive),> 100 µM (inactive),> 100 µM (inactive),> 100 µM (inactive),,> 100 µM (inactive),> 100 µM (inactive),> 100 µM (inactive),> 100 µM (inactive)
Cc1ccc(S(=O)(=O)c2c(N)c3nc4ccccc4n3c3nc4ccccc4nc23)cc1,> 100 µM (inactive),,> 100 µM (inactive),> 100 µM (inactive),,,> 100 µM (inactive),> 100 µM (inactive),> 100 µM (inactive)
Cc1ccc(-n2c(=S)[nH]c3ccc(Br)cc3c2=O)cc1,,> 100 µM (inactive),> 100 µM (inactive),> 100 µM (inactive),> 100 µM (inactive),,67.9 µM (inactive),> 100 µM (inactive),
CCOC(OC1=C(C#N)CCC1)C(C)[Se]c1ccccc1 (stereo not given),14.5 µM (inactive),,4.06 µM (inactive),14.8 µM (inactive),25.4 µM (inactive),29.8 µM (inactive),30.5 µM (inactive),17.2 µM (inactive),11.1 µM (inactive)
CCCCCCCCOCC(CO)OCCCCCCCC (stereo not given),18.7 µM (inactive),,21.2 µM (inactive),20 µM (inactive),11.7 µM (inactive),,18 µM (inactive),18.9 µM (inactive),17.7 µM (inactive)
CC(=O)O[C@]12CCC[C@H]1C1(O)C(O)CCC[C@H]12 (stereo not given in full),> 100 µM (inactive),> 100 µM (inactive),> 100 µM (inactive),> 100 µM (inactive),> 100 µM (inactive),> 100 µM (inactive),,> 100 µM (inactive),
COC(CN1C=C(Sc2ccccc2)CC1)OC,,22.4 µM (inactive),23.2 µM (inactive),31.8 µM (inactive),59.3 µM (inactive),34.3 µM (inactive),29 µM (inactive),,
C/C=C(/CCCCNCCCC)[Si](C)(C)C,18.4 µM (inactive),11.3 µM (inactive),14.6 µM (inactive),16.8 µM (inactive),> 10 µM (inactive),14.2 µM (inactive),14.6 µM (inactive),15.9 µM (inactive),15 µM (inactive)
